EC50 data for 30 compounds are collected here from ChEMBL document CHEMBL5727750, “Heterocyclic compounds as immunomodulators” (2020).

Where “and” joins values, the source holds several entries; their conditions need not be identical. Identical values can stand only once.

The nature of the experiment: Nuclear Factor of Activated T-Cells (NFAT) Assay: PD-L1 aAPC/CHO-Klcells (Promega) were maintained in F-12 medium with addition of 10% FBS, 200 μg/ml Hygromycin B, 250 μg/ml Geneticin (G418). Jurkat-PD-1-NFAT effector cells (Promega) were cultured in RPMI 1640 medium supplemented with 10% FBS, 100 μg/ml Hygromycin B, 500 μg/ml G418. The culture media of PD-L1 aAPC/CHO-K1 cells were first replaced with assay medium (RPMI1640 medium with 1% FBS). The PD-L1 aAPC/CHO-K1 cells were then added in a white 384-well white clear bottom assay plate (CELLCOAT® Tissue Culture Plates, Greiner Bio-One) at 8000 per well in 10 μL assay medium. Test compounds were prepared by serial dilution in DMSO and 0.8 μL test compounds in DMSO were first transferred to the 384 REMP plate well (Thermofisher) by PlateMate Plus (Thermofisher) followed with addition of 50 μL plating medium. 5 μL compounds in the assay medium were transferred to the cells with 0.4% DMSO in the final assay at 2 μM. After removing the culture media, 10,000 Jurkat-PD-1-NFAT effector cells in 5 μL assay medium was dispensed into each well. The assay plate was incubated at 37° C., 5% CO2 for 24 hours. After the assay plate was equilibrated to room temp for 15 minutes, 20 µL/well of Bio-Glo™ reagent (Promega) were added. After 8 minutes incubation at room temperature, luminescence was read at with Pherastar microplate reader (BMG Labtech). The fold of induction (FOI) was calculated based on the ratio of luminescence normalized to the DMSO wells within each assay plate. The maximum percentage of induction was reported based on the ratio between the highest FOI of each compound and the maximum FOI of control compound within each assay plate. Wells with DMSO were served as the negative controls and wells containing control compound with the highest FOI were used as positive controls. EC50 determination was performed by fitting the curve of percent control activity versus the log of the compound concentration using the GraphPad Prism 6.0 software.
`Cc1c(Nc2nc(N)nc3cc(CN4CC[C@@H](O)C4)cnc23)cccc1-c1cccc(-c2nc3cc(CN4CCC(C(=O)O)CC4)cc(C#N)c3o2)c1C`: the half-maximal effective concentration (EC50) (commonly the concentration giving half of the maximal effect) is 10 to 100 nM.

For the compound `Cc1c(Nc2nc(C(F)F)nc3cc(CN4CC[C@@H](O)C4)cnc23)cccc1-c1cccc(-c2nc3cc(CN4CCC(C)(C(=O)O)CC4)cc(C#N)c3o2)c1C`, the EC50 was 10 to 100 nM.

Regarding `Cc1nc(Nc2cccc(-c3cccc(-c4nc5cc(CN6CCC(C(=O)O)CC6)cc(C#N)c5o4)c3C)c2C)c2ncc(CNC[C@H](C)O)cc2n1`, the EC50 entry is “in the range around 55 nM”.

As to `Cc1c(Nc2nc(CO)nc3cc(CN4CC[C@@H](O)C4)cnc23)cccc1-c1cccc(-c2nc3cc(CN4CCC(C(=O)O)CC4)cc(C#N)c3o2)c1C`, the EC50 is 10 to 100 nM.

Take `Cc1c(Nc2nc(C(F)F)nc3cc(CN4CC[C@](C)(O)C4)cnc23)cccc1-c1cccc(-c2nc3cc(CN4CCC(C(=O)O)CC4)cc(C#N)c3o2)c1C`: the EC50 was < 10 nM.

For `Cc1c(Nc2nc(C(F)F)nc3cc(CN4CC[C@@H](O)C4)cnc23)cccc1-c1cccc(-c2nc3cc(CN4CCC(C(=O)N(C)C)CC4)cc(C#N)c3o2)c1C`, the EC50 is 10 to 100 nM.

In the case of `Cc1nc(Nc2cccc(-c3cccc(-c4nc5cc(CN6CC[C@@H](C(=O)O)C6)cc(C#N)c5o4)c3C)c2C)c2ncc(CN3CC[C@](C)(O)C3)cc2n1`, the EC50 was 10 to 100 nM.

Take `Cc1nc(Nc2cccc(-c3cccc(-c4nc5cc(CN6CC[C@@H](C(=O)O)C6)cc(C#N)c5o4)c3C)c2C)c2ncc(CNC[C@H](C)O)cc2n1`: the EC50 is 10 to 100 nM.

With `Cc1c(Nc2nc(C(F)F)nc3cc(CN4CC[C@@H](O)C4)cnc23)cccc1-c1cccc(-c2nc3cc(CN4CC[C@@H](C(=O)O)C4)cc(C#N)c3o2)c1C`, the EC50 was 10 nM and 100 nM and in the range around 55 nM.

Take `Cc1c(Nc2nc(C(F)F)cc3cc(CN4CC[C@@H](O)C4)cnc23)cccc1-c1cccc(-c2nc3cc(CN4CC[C@@](C)(C(=O)O)C4)cc(C#N)c3o2)c1C`: the EC50 is < 10 nM.

With `Cc1nc(Nc2cccc(-c3cccc(-c4nc5cc(CN6CCC(C(=O)O)CC6)cc(C#N)c5o4)c3C)c2C)c2ncc(CN3CC[C@](C)(O)C3)cc2n1`, the EC50 was 10 to 100 nM.

Take `Cc1c(Nc2nc(C(F)F)nc3cc(CN4CC[C@@H](O)C4)cnc23)cccc1-c1cccc(-c2nc3cc(CN4CC[C@@](C)(C(=O)O)C4)cc(C#N)c3o2)c1C`: the EC50 is 10 nM and 100 nM and in the range around 55 nM.

On to `Cc1nc(Nc2cccc(-c3cccc(-c4nc5cc(CN6CC[C@@](C)(C(=O)O)C6)cc(C#N)c5o4)c3C)c2C)c2ncc(CN[C@@H](C)CO)cc2n1`, for which the EC50 result is “in the range around 55 nM”.

In the case of `Cc1nc(Nc2cccc(-c3cccc(-c4nc5cc(CN6CC[C@@H](C(=O)O)C6)cc(C#N)c5o4)c3C)c2C)c2ncc(CN[C@@H](C)CO)cc2n1`, the EC50 was 10 to 100 nM.

Take `Cc1nc(Nc2cccc(-c3cccc(-c4nc5cc(CN6CCC(C(=O)O)CC6)cc(C#N)c5o4)c3C)c2C)c2ncc(CN3CC[C@@H](O)C3)cc2n1`: the EC50 was 10 to 100 nM.

As to `Cc1c(Nc2nc(C(F)F)nc3cc(CN4CC[C@@H](O)C4)cnc23)cccc1-c1cccc(-c2nc3cc(CN4CC[C@H](C(=O)O)C4)cc(C#N)c3o2)c1C`, the EC50 is 10 to 100 nM.

`Cc1nc(Nc2cccc(-c3cccc(-c4nc5cc(CN6CC[C@@](C)(C(=O)O)C6)cc(C#N)c5o4)c3C)c2C)c2ncc(CNC[C@H](C)O)cc2n1`: the EC50 entry is “in the range around 55 nM”.

Consider `CNC(=O)C1CCN(Cc2cc(C#N)c3oc(-c4cccc(-c5cccc(Nc6nc(C(F)F)nc7cc(CN8CC[C@@H](O)C8)cnc67)c5C)c4C)nc3c2)CC1`, for which the EC50 was < 10 nM.

Regarding `Cc1c(Nc2nc(C3CC3)nc3cc(CN4CC[C@@H](O)C4)cnc23)cccc1-c1cccc(-c2nc3cc(CN4CC[C@@H](C(=O)O)C4)cc(C#N)c3o2)c1C`, the EC50 entry was “in the range around 55 nM”.

On to `Cc1c(Nc2nc(C(F)F)nc3cc(CN4CC[C@@](C)(O)C4)cnc23)cccc1-c1cccc(-c2nc3cc(CN4CCC(C(=O)O)CC4)cc(C#N)c3o2)c1C`, for which the EC50 is < 10 nM.

Turning to `Cc1nc(Nc2cccc(-c3cccc(-c4nc5cc(CN6CC[C@@H](C(=O)O)C6)cc(C#N)c5o4)c3C)c2C)c2ncc(CN3CC[C@@](C)(O)C3)cc2n1`, the EC50 is 10 to 100 nM.

For the compound `Cc1nc(Nc2cccc(-c3cccc(-c4nc5cc(CN6CC[C@@](C)(C(=O)O)C6)cc(C#N)c5o4)c3C)c2C)c2ncc(CN3CC[C@@](C)(O)C3)cc2n1`, the 50% effective concentration (EC50) is 10 to 100 nM.

For `Cc1c(Nc2nc(C(F)F)nc3cc(CN4CC[C@@H](O)C4)cnc23)cccc1-c1cccc(-c2nc3cc(CN4CC[C@](C)(C(=O)O)C4)cc(C#N)c3o2)c1C`, the EC50 was < 10 nM.

As to `Cc1nc(Nc2cccc(-c3cccc(-c4nc5cc(CN6CCC(C(=O)O)CC6)cc(C#N)c5o4)c3C)c2C)c2ncc(CN3CC[C@@](C)(O)C3)cc2n1`, the EC50 was 10 to 100 nM.

On to `Cc1nc(Nc2cccc(-c3cccc(-c4nc5cc(CN6CC[C@@](C)(C(=O)O)C6)cc(C#N)c5o4)c3C)c2C)c2ncc(CN3CC[C@](C)(O)C3)cc2n1`, for which the EC50 is 10 to 100 nM.

Regarding `Cc1c(Nc2nc(C(F)F)nc3cc(CN4CC[C@@H](O)C4)cnc23)cccc1-c1cccc(-c2nc3cc(CN4CCC(C(=O)NCCC(=O)O)CC4)cc(C#N)c3o2)c1C`, the EC50 was 10 to 100 nM.

`Cc1nc(Nc2cccc(-c3cccc(-c4nc5cc(CN6CC[C@@](C)(C(=O)O)C6)cc(C#N)c5o4)c3C)c2C)c2ncc(CN3CC[C@@H](O)C3)cc2n1`: the EC50 is 10 to 100 nM.

For `Cc1nc(Nc2cccc(-c3cccc(-c4nc5cc(CN6CC[C@@H](C(=O)O)C6)cc(C#N)c5o4)c3C)c2C)c2ncc(CN3CC[C@@H](O)C3)cc2n1`, the EC50 is 10 to 100 nM and < 10 nM.

As for `Cc1nc(Nc2cccc(-c3cccc(-c4nc5cc(CN6CCC(C(=O)O)CC6)cc(C#N)c5o4)c3C)c2C)c2ncc(CN[C@@H](C)CO)cc2n1`, the EC50 result is “in the range around 55 nM”.

In the case of `Cc1c(Nc2nc(C(F)F)nc3cc(CN4CC[C@@H](O)C4)cnc23)cccc1-c1cccc(-c2nc3cc(CN4CCC(C(=O)O)CC4)cc(C#N)c3o2)c1C`, the EC50 result is “in the range around 55 nM”.
